Data reported in patent publication US20260140098A1, “METHOD FOR TREATING PLASMA SAMPLE CONTAINING (7aS,2'S)-2-OXO-CLOPIDOGREL AND METHOD FOR DETERMINING THE SAME” (CHENGDU SHIBEIKANG BIOMEDICAL TECHNOLOGY CO., LTD., priority 2021, published 2026).

Assay: Stability of (7aS,2′S)-2-oxo-clopidogrel in plasma, screening of TCEP dosage (Example 4)
Format: in vitro ADME
Procedure: S2. Plasma sample pre-treatment: taking 100 μl of the plasma, adding 5 μl of an internal standard working solution and 300 μl of acetonitrile respectively; after vortex mixing, centrifuging at 2-8° C. and 10,000 r/min for 10 min, and collecting the supernatant for later use.
S3. LC-MS/MS analysis: injecting 10 μl of the supernatant prepared from step S2 for determination, where the liquid chromatography conditions are: • the chromatographic column is Kinetex® 1.7 μm C18 100 A 100×2.1 mm; the column temperature is 40° C.; the mobile phase is acetonitrile-0.2% aqueous formic acid solution with a flow rate of 0.2 ml/min; and a gradient elution is carried out as specified in the table below:
ESI ion source, positive ion detection in multiple reaction monitoring mode (MRM); the quantitatively analyzed ions (7aS,2′S)-2-oxo-clopidogrel: m/z 338.100→155.000, IS: m/z 341.100→158.000, a capillary voltage of 4.0 KV, a cone voltage of 25 V, a desolvation gas temperature of 400° C. and a source temperature of 150° C. The optimal collision energy is 20 eV.
Blank plasma was taken and TCEP was added to prepare plasma containing TCEP at different concentrations (10, 50, 100 mg/ml). Subsequently, standard series solution of (7aS,2′S)-2-oxo-clopidogrel was added separately to prepare quality control samples with two concentrations of (7aS,2′S)-2-oxo-clopidogrel (0.1 and 12.0 ng/ml), 3 samples for each concentration. They were placed at room temperature and on ice, respectively, and the plasma samples at different placing time points were taken to examine the stability by pre-treating the plasma samples according to the method of S2 of Example 1, followed by LC/MS/MS determination according to the method of S3.

Measured concentration (No TCEP, theoretical 0.1 ng/mL, on ice, 0 min): 0.0965 ng/mL
Measured concentration (No TCEP, theoretical 0.1 ng/mL, on ice, 30 min): 0.0842 ng/mL
Measured concentration (No TCEP, theoretical 0.1 ng/mL, on ice, 60 min): 0.0763 ng/mL
Measured concentration (No TCEP, theoretical 0.1 ng/mL, on ice, 120 min): 0.0622 ng/mL
Measured concentration (No TCEP, theoretical 0.1 ng/mL, room temperature, 0 min): 0.0965 ng/mL
Measured concentration (No TCEP, theoretical 0.1 ng/mL, room temperature, 30 min): 0.0782 ng/mL
Measured concentration (No TCEP, theoretical 0.1 ng/mL, room temperature, 60 min): 0.0633 ng/mL
Measured concentration (No TCEP, theoretical 0.1 ng/mL, room temperature, 120 min): 0.0529 ng/mL
Measured concentration (No TCEP, theoretical 12.0 ng/mL, on ice, 0 min): 12.3 ng/mL
Measured concentration (No TCEP, theoretical 12.0 ng/mL, on ice, 30 min): 10.3 ng/mL
Measured concentration (No TCEP, theoretical 12.0 ng/mL, on ice, 60 min): 9.65 ng/mL
Measured concentration (No TCEP, theoretical 12.0 ng/mL, on ice, 120 min): 7.23 ng/mL
Measured concentration (No TCEP, theoretical 12.0 ng/mL, room temperature, 0 min): 12.3 ng/mL
Measured concentration (No TCEP, theoretical 12.0 ng/mL, room temperature, 30 min): 9.45 ng/mL
Measured concentration (No TCEP, theoretical 12.0 ng/mL, room temperature, 60 min): 8.38 ng/mL
Measured concentration (No TCEP, theoretical 12.0 ng/mL, room temperature, 120 min): 6.57 ng/mL
Measured concentration (TCEP 10 mg/ml, theoretical 0.1 ng/mL, on ice, 0 min): 0.0965 ng/mL
Measured concentration (TCEP 10 mg/ml, theoretical 0.1 ng/mL, on ice, 30 min): 0.0942 ng/mL
Measured concentration (TCEP 10 mg/ml, theoretical 0.1 ng/mL, on ice, 60 min): 0.0863 ng/mL
Measured concentration (TCEP 10 mg/ml, theoretical 0.1 ng/mL, on ice, 120 min): 0.0782 ng/mL
Measured concentration (TCEP 10 mg/ml, theoretical 0.1 ng/mL, room temperature, 0 min): 0.0965 ng/mL
Measured concentration (TCEP 10 mg/ml, theoretical 0.1 ng/mL, room temperature, 30 min): 0.0952 ng/mL
Measured concentration (TCEP 10 mg/ml, theoretical 0.1 ng/mL, room temperature, 60 min): 0.0833 ng/mL
Measured concentration (TCEP 10 mg/ml, theoretical 0.1 ng/mL, room temperature, 120 min): 0.0729 ng/mL
Measured concentration (TCEP 10 mg/ml, theoretical 12.0 ng/mL, on ice, 0 min): 12.3 ng/mL
Measured concentration (TCEP 10 mg/ml, theoretical 12.0 ng/mL, on ice, 30 min): 11.9 ng/mL
Measured concentration (TCEP 10 mg/ml, theoretical 12.0 ng/mL, on ice, 60 min): 10.65 ng/mL
Measured concentration (TCEP 10 mg/ml, theoretical 12.0 ng/mL, on ice, 120 min): 9.92 ng/mL
Measured concentration (TCEP 10 mg/ml, theoretical 12.0 ng/mL, room temperature, 0 min): 12.3 ng/mL
Measured concentration (TCEP 10 mg/ml, theoretical 12.0 ng/mL, room temperature, 30 min): 11.7 ng/mL
Measured concentration (TCEP 10 mg/ml, theoretical 12.0 ng/mL, room temperature, 60 min): 10.4 ng/mL
Measured concentration (TCEP 10 mg/ml, theoretical 12.0 ng/mL, room temperature, 120 min): 9.45 ng/mL
Measured concentration (TCEP 50 mg/ml, theoretical 0.1 ng/mL, on ice, 0 min): 0.0965 ng/mL
Measured concentration (TCEP 50 mg/ml, theoretical 0.1 ng/mL, on ice, 30 min): 0.0956 ng/mL
Measured concentration (TCEP 50 mg/ml, theoretical 0.1 ng/mL, on ice, 60 min): 0.0932 ng/mL
Measured concentration (TCEP 50 mg/ml, theoretical 0.1 ng/mL, on ice, 120 min): 0.0911 ng/mL
Measured concentration (TCEP 50 mg/ml, theoretical 0.1 ng/mL, room temperature, 0 min): 0.0965 ng/mL
Measured concentration (TCEP 50 mg/ml, theoretical 0.1 ng/mL, room temperature, 30 min): 0.0935 ng/mL
Measured concentration (TCEP 50 mg/ml, theoretical 0.1 ng/mL, room temperature, 60 min): 0.0914 ng/mL
Measured concentration (TCEP 50 mg/ml, theoretical 0.1 ng/mL, room temperature, 120 min): 0.0895 ng/mL
Measured concentration (TCEP 50 mg/ml, theoretical 12.0 ng/mL, on ice, 0 min): 12.3 ng/mL
Measured concentration (TCEP 50 mg/ml, theoretical 12.0 ng/mL, on ice, 30 min): 12.2 ng/mL
Measured concentration (TCEP 50 mg/ml, theoretical 12.0 ng/mL, on ice, 60 min): 11.9 ng/mL
Measured concentration (TCEP 50 mg/ml, theoretical 12.0 ng/mL, on ice, 120 min): 11.4 ng/mL
Measured concentration (TCEP 50 mg/ml, theoretical 12.0 ng/mL, room temperature, 0 min): 12.3 ng/mL
Measured concentration (TCEP 50 mg/ml, theoretical 12.0 ng/mL, room temperature, 30 min): 12.1 ng/mL
Measured concentration (TCEP 50 mg/ml, theoretical 12.0 ng/mL, room temperature, 60 min): 11.9 ng/mL
Measured concentration (TCEP 50 mg/ml, theoretical 12.0 ng/mL, room temperature, 120 min): 10.6 ng/mL
Measured concentration (TCEP 100 mg/ml, theoretical 0.1 ng/mL, on ice, 0 min): 0.0965 ng/mL
Measured concentration (TCEP 100 mg/ml, theoretical 0.1 ng/mL, on ice, 30 min): 0.0958 ng/mL
Measured concentration (TCEP 100 mg/ml, theoretical 0.1 ng/mL, on ice, 60 min): 0.0942 ng/mL
Measured concentration (TCEP 100 mg/ml, theoretical 0.1 ng/mL, on ice, 120 min): 0.0951 ng/mL
Measured concentration (TCEP 100 mg/ml, theoretical 0.1 ng/mL, room temperature, 0 min): 0.0965 ng/mL
Measured concentration (TCEP 100 mg/ml, theoretical 0.1 ng/mL, room temperature, 30 min): 0.0955 ng/mL
Measured concentration (TCEP 100 mg/ml, theoretical 0.1 ng/mL, room temperature, 60 min): 0.0934 ng/mL
Measured concentration (TCEP 100 mg/ml, theoretical 0.1 ng/mL, room temperature, 120 min): 0.0915 ng/mL
Measured concentration (TCEP 100 mg/ml, theoretical 12.0 ng/mL, on ice, 0 min): 12.3 ng/mL
Measured concentration (TCEP 100 mg/ml, theoretical 12.0 ng/mL, on ice, 30 min): 12.4 ng/mL
Measured concentration (TCEP 100 mg/ml, theoretical 12.0 ng/mL, on ice, 60 min): 12.1 ng/mL
Measured concentration (TCEP 100 mg/ml, theoretical 12.0 ng/mL, on ice, 120 min): 11.8 ng/mL
Measured concentration (TCEP 100 mg/ml, theoretical 12.0 ng/mL, room temperature, 0 min): 12.3 ng/mL
Measured concentration (TCEP 100 mg/ml, theoretical 12.0 ng/mL, room temperature, 30 min): 12.2 ng/mL
Measured concentration (TCEP 100 mg/ml, theoretical 12.0 ng/mL, room temperature, 60 min): 11.9 ng/mL
Measured concentration (TCEP 100 mg/ml, theoretical 12.0 ng/mL, room temperature, 120 min): 11.6 ng/mL
Stability in plasma (in words) (TCEP added at a concentration of 50 mg/ml or more): good stability
Compound: COC(=O)[C@H](c1ccccc1Cl)N1CC[C@@H]2SC(=O)C=C2C1 [(7aS,2′S)-2-oxo-clopidogrel, methyl(S)-2-(2-chlorophenyl)-2-((S)-2-oxo-2,6,7,7a-tetrahydrothieno[3,2-c]pyridin-5 (4H)-yl)acetate]
